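1) Cells in 96-well plates. 2) Compound, 48 h, 5 concentrations. 3) Linear interpolation between surrounding doses. 4) Unreached endpoint = highest concentration. The concentration for full growth arrest is given as TGI.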
Tests used:
Assay in all cases: NCI anticancer screen, dose series, 48 h
786-0 renal = tested on: 786-0 renal
A549 NSCLC = tested on: A549 NSCLC
ACHN renal = tested on: ACHN renal
BT-549 breast = tested on: BT-549 breast
CCRF-CEM leukemia = tested on: CCRF-CEM leukemia
COLO 205 colon = tested on: COLO 205 colon
DU-145 prostate = tested on: DU-145 prostate
EKVX NSCLC = tested on: EKVX NSCLC
HCC-2998 colon = tested on: HCC-2998 colon
HCT-116 colon = tested on: HCT-116 colon
HCT-15 colon = tested on: HCT-15 colon
HL-60(TB) leukemia = tested on: HL-60(TB) leukemia
HOP-62 NSCLC = tested on: HOP-62 NSCLC
HOP-92 NSCLC = tested on: HOP-92 NSCLC
HS 578T breast = tested on: HS 578T breast
HT29 colon = tested on: HT29 colon
IGROV1 ovarian = tested on: IGROV1 ovarian
K-562 leukemia = tested on: K-562 leukemia
KM12 colon = tested on: KM12 colon
M14 melanoma = tested on: M14 melanoma
MALME-3M melanoma = tested on: MALME-3M melanoma
MCF7 breast = tested on: MCF7 breast
MDA-MB-231 breast = tested on: MDA-MB-231 breast
MDA-MB-435 = tested on: MDA-MB-435
MDA-N = tested on: MDA-N
MOLT-4 leukemia = tested on: MOLT-4 leukemia
NCI-H226 lung = tested on: NCI-H226 lung
NCI-H23 lung = tested on: NCI-H23 lung
NCI-H460 lung = tested on: NCI-H460 lung
NCI-H522 lung = tested on: NCI-H522 lung
NCI/ADR-RES ovarian = tested on: NCI/ADR-RES ovarian
OVCAR-3 ovarian = tested on: OVCAR-3 ovarian
OVCAR-4 ovarian = tested on: OVCAR-4 ovarian
OVCAR-5 ovarian = tested on: OVCAR-5 ovarian
OVCAR-8 ovarian = tested on: OVCAR-8 ovarian
PC-3 prostate = tested on: PC-3 prostate
RPMI-8226 leukemia = tested on: RPMI-8226 leukemia
RXF 393 renal = tested on: RXF 393 renal
SF-268 CNS = tested on: SF-268 CNS
SF-295 CNS = tested on: SF-295 CNS
SF-539 CNS = tested on: SF-539 CNS
SK-MEL-28 melanoma = tested on: SK-MEL-28 melanoma
SK-MEL-5 melanoma = tested on: SK-MEL-5 melanoma
SK-OV-3 ovarian = tested on: SK-OV-3 ovarian
SN12C renal = tested on: SN12C renal
SNB-19 CNS = tested on: SNB-19 CNS
SNB-75 CNS = tested on: SNB-75 CNS
SW-620 colon = tested on: SW-620 colon
T-47D breast = tested on: T-47D breast
TK-10 renal = tested on: TK-10 renal
U251 CNS = tested on: U251 CNS
UACC-257 melanoma = tested on: UACC-257 melanoma
UACC-62 melanoma = tested on: UACC-62 melanoma

Measured: TGI

Nc1ccc2nc3c(nc2c1)C(=O)c1ccccc1-3
> 100 µM: all assays above

— PubChem BioAssay (NCI)
